Results reported in patent publication US4207326A, “Antimicrobial quaternary pyrazole derivatives” (Cilag-Chemie A.G., priority 1979, dated 1980).
Like-named read-outs stand apart in the source and are kept apart here.

Legend:
S. pyogenes = assay: Antibacterial activity: Minimum Inhibitory Concentration; format: cell-based, Streptococcus pyogenes NCTC 8198; conditions: 24 hours; for MIC: Streptococcus pyogenes
Description: (§1) The antimicrobial activity was determined by inoculation of the test microorganism into suitable growth media containing solutions of the compounds at concentrations of 100, 50, 10, 5, 1.0, 0.5 and 0.1 μg/ml. The reference antibiotics used were Gentamicin for the antibacterial tests and Amphotericin B for the antimycotic and antifungal tests. After incubation the antimicrobial activity was recorded as the Minimal Inhibitory Concentration (M.I.C.), i.e., the lowest concentration preventing macroscopically visible growth, for each test compound against each organism.
(§2) An initial solution of each formula (I) compound to be tested in sterile distilled water was prepared at a concentration of 1000 μg/ml. With appropriate dilutions using sterile distilled water, additional solutions were prepared at concentrations of 500, 100, 50, 10, 5 and 1 μg/ml.
They were cultured and maintained on Tryptone Soy Agar (Oxoid CM 131), with the addition of 10% horse blood for the S. pyogenes.
To prepare the organisms as inocula for the test, slopes of this medium were streaked with the organisms and incubated at 37° C. for 24 hours. 4.5 Ml volumes of Brian-Heart Infusion Broth (Oxoid CM 225) were then inoculated with a platinum loop from the agar slope cultures and incubated for 24 hours at 37° C. The final inocula were then prepared by adding 0.1 ml aliquots of the Brain-Heart Infusion Broth cultures to 100 ml volumes of sterile physiological saline.
(a) For the test on each of the bacterial strains and each of the test and reference compounds, a series of 8 tubes containing 4.5 ml volumes of Brain-Heart Infusion Broth (Oxoid CM 225) were prepared. To 7 of these were added 0.5 ml volumes of the final solutions of the test compouns, giving final concentrations in the broths of 100, 50, 10, 5, 1.0, 0.5 and 0.1 μg/ml. To the eighth tube in each series was added 0.5 ml of the solvent used and diluted as for the preparation of the 1000 μg/ml solution of the compound. This tube was used as the growth control. The tubes were inoculated with 0.02 ml aliquots of the inocula prepared in accordance with "(a) Bacteria" above, and incubated at 37° C. for 24 hours. The tubes were then examined for evidence of bacterial growth as shown by turbidity of the medium and the lowest concentration of the test compound which prevented bacterial growth was recorded as the Minimal Inhibitory Concentration. This test procedure was carried out on two separate days.

T. mentagrophytes = assay: Antifungal activity: Minimum Inhibitory Concentration; format: cell-based, Trichophyton mentagrophytes NCPF 410; conditions: T. mentagrophytes, 27° C., one week; for MIC: Trichophyton mentagrophytes, read-out: Minimum Inhibitory Concentration
Description: as §1, §2
T. mentagrophytes NCPF 410
The A. corymbifera, A. fumigatus, S. schenkii, T. rubrum, T. mentagrophytes, M. canis and P. verrucosa strains were all maintained on Sabouraud-Dextrose Agar (Oxoid CM 41) by incubating for 14 days at 27° C. To prepare the inocula 30 ml volumes of Sabouraud-Liquid medium (Oxoid CM 147) were inoculated from the agar cultures and incubated at 27° C. until heavy uniform growth resulted. The mycelial growth was then broken up by shaking with glass beads.
1 Ml aliquots were removed from each of the cultures for the purpose of making viable counts and the cultures were then held at 4° C. The viable counts were made by preparing serial ten-fold dilutions of the cultures in sterile physiological saline and spreading on plates of Sabouraud-Dextrose Agar (Oxoid CM 41) which were then incubated at 27° C. for 14 days. When the viable counts had confirmed that each of the inocula contained approximately 10^6 colony forming units (C.F.U.) per ml the cultures were withdrawn from the refrigerator and used as the inocula for the tests.
(c) For the tests on each of the remaining seven strains and each of the test and reference compounds, a series of 8 tubes containing 4.5 ml volumes of Sabouraud-Liquid Medium (Oxoid CM 147) were prepared. To 7 of these were added 0.5 ml volumes of the final solutions of the test compounds, giving final concentrations in the broths of 100, 50, 10, 5, 1.0, 0.5 and 0.1 μg/ml. To the eighth tube in each series was added 0.5 ml of the solvent used and diluted as for the preparation of the 500 μg/ml solution of the compound. This tube was used as a growth control. The tubes were then inoculated with 0.1 ml aliquots of the inocula prepared as in "(b) Fungi" above. The tubes were then incubated at 27° C. with continuous shaking for a period of one week. The tubes were then examined for evidence of growth as shown by the presence of mycelial growth in the medium and the lowest concentration of the test compound which prevented fungal growth was recorded as the Minimal Inhibitory Concentration. This test procedure was carried out on two separate days.

[1] = tested on: Algae (diatoms, green and blue algae); assay: Algicidal activity in 350 liter concrete pools under outdoor conditions; conditions: for killing at 1 µg/mL: 1 mg/l water; for killing at 2 µg/mL: 2 mg/l water; for killing at 4 µg/mL: 4 mg/l water
Excerpt: A comparison of the algicidic activity of the preferred compound, 1-hexadecyl-2,3,5-trimethyl-pyrazolium methosulfate, with said standard is shown in Table 4.
Results given above are mean values from 2 replicates of
Test conditions: Severe with high infection pressure after artificial
algae inoculation in 350 liter concrete pools under outdoor conditions.
Stains included: Green algae: Chlorella, Zygnema, Hormidium + Scenedesmus
Blue algae: Phormidium species
Diatoms: Nitzschea pallea
Water temperature: Day: 21° C., night: 18°-20° C.

[2] = mean over weeks 1-6, read-out: % algicidal activity, --x (mean)
[3] = 168 h, 1 week after treatment, mean of 2 replicates, read-out: % algicidal activity
[4] = 336 h, 2 weeks after treatment, mean of 2 replicates, read-out: % algicidal activity
[5] = 504 h, 3 weeks after treatment, mean of 2 replicates, read-out: % algicidal activity
[6] = 672 h, 4 weeks after treatment, mean of 2 replicates, read-out: % algicidal activity
[7] = 840 h, 5 weeks after treatment, mean of 2 replicates, read-out: % algicidal activity
[8] = 1008 h, 6 weeks after treatment, mean of 2 replicates, read-out: % algicidal activity

## 2,3(5)-dimethyl-1-dodecyl-pyrazolium methosulfate [Example 8-A]
S. pyogenes; Day 1, 37° C.
  Minimum Inhibitory Concentration: 5 µg/mL
S. pyogenes; Day 2, 37° C.
  Minimum Inhibitory Concentration: 5 µg/mL
T. mentagrophytes; Day 1
  Minimum Inhibitory Concentration: 5 µg/mL
T. mentagrophytes; Day 2
  Minimum Inhibitory Concentration: 5 µg/mL

## 2,3(5)-dimethyl-1-hexadecyl-pyrazolium methosulfate [Example 9]
S. pyogenes; Day 1, 37° C.
  Minimum Inhibitory Concentration: 0.5 µg/mL
S. pyogenes; Day 2, 37° C.
  Minimum Inhibitory Concentration: 0.5 µg/mL
T. mentagrophytes; Day 1
  Minimum Inhibitory Concentration: 5 µg/mL
T. mentagrophytes; Day 2
  Minimum Inhibitory Concentration: 5 µg/mL

## CCCCCCCCCCCCn1c(C)cc(C)[n+]1C [Example 1, 1-dodecyl-2,3,5-trimethyl-pyrazolium methosulfate]
S. pyogenes; Day 1, 37° C.
  MIC: 1 µg/mL
S. pyogenes; Day 2, 37° C.
  MIC: 0.5 µg/mL
T. mentagrophytes; Day 1
  MIC: 50 µg/mL
T. mentagrophytes; Day 2
  MIC: 50 µg/mL

## CCCCCCCCCCCCCCCCn1c(C)cc(C)[n+]1C [Example 2, 1-hexadecyl-2,3,5-trimethyl-pyrazolium methosulfate]
S. pyogenes; Day 1, 37° C.
  MIC: 0.5 µg/mL
S. pyogenes; Day 2, 37° C.
  MIC: 0.5 µg/mL
T. mentagrophytes; Day 1
  MIC: 1 µg/mL
T. mentagrophytes; Day 2
  MIC: 5 µg/mL
[1]; [2]
  killing at 1 µg/mL: 96%
  killing at 2 µg/mL: 99%
  killing at 4 µg/mL: 100%
[1]; [3]
  killing at 1 µg/mL: 100%
  killing at 2 µg/mL: 100%
  killing at 4 µg/mL: 100%
[1]; [4]
  killing at 1 µg/mL: 100%
  killing at 2 µg/mL: 100%
  killing at 4 µg/mL: 100%
[1]; [5]
  killing at 2 µg/mL: 100%
  killing at 4 µg/mL: 100%
[1]; [6]
  killing at 1 µg/mL: 96%
  killing at 2 µg/mL: 100%
  killing at 4 µg/mL: 100%
[1]; [7]
  killing at 1 µg/mL: 93%
  killing at 2 µg/mL: 100%
  killing at 4 µg/mL: 100%
[1]; [8]
  killing at 1 µg/mL: 88%
  killing at 2 µg/mL: 98%
  killing at 4 µg/mL: 100%

## CCCCCCCCCCCCCCCCn1ccc[n+]1C [Example 3-D, 1-hexadecyl-2-methyl-pyrazolium methosulfate]
S. pyogenes; Day 1, 37° C.
  MIC: 0.5 µg/mL
S. pyogenes; Day 2, 37° C.
  MIC: 0.5 µg/mL
T. mentagrophytes; Day 1
  MIC: 1 µg/mL
T. mentagrophytes; Day 2
  MIC: 1 µg/mL

## CCCCCCCCCCCCn1ccc[n+]1C [Example 3-E, 1-dodecyl-2-methy-pyrazolium methosulfate]
S. pyogenes; Day 1, 37° C.
  MIC: 5 µg/mL
S. pyogenes; Day 2, 37° C.
  MIC: 5 µg/mL
T. mentagrophytes; Day 1
  MIC: 1 µg/mL
T. mentagrophytes; Day 2
  MIC: 5 µg/mL

## CCCCCCCCCCCCCCn1ccc[n+]1C [Example 3-G, 2-methyl-1-tetradecyl-pyrazolium methosulfate]
S. pyogenes; Day 1, 37° C.
  MIC: 0.5 µg/mL
S. pyogenes; Day 2, 37° C.
  MIC: 0.5 µg/mL
T. mentagrophytes; Day 1
  MIC: 1 µg/mL
T. mentagrophytes; Day 2
  MIC: 5 µg/mL

## CCCCCCCCCCCC[n+]1c(C)cc(C)n1Cc1ccc(Cl)cc1Cl.[Br-] [Example 6-B, 2-(2,4-dichlorobenzyl)-3,5-dimethyl-1-dodecyl-pyrazolium bromide]
S. pyogenes; Day 1, 37° C.
  MIC: 0.5 µg/mL
S. pyogenes; Day 2, 37° C.
  MIC: 0.5 µg/mL
T. mentagrophytes; Day 1
  MIC: 1 µg/mL
T. mentagrophytes; Day 2
  MIC: 1 µg/mL

## CCCCCCCCCCCCCCCC[n+]1c(C)cc(C)n1C.Cc1ccc(S(=O)(=O)[O-])cc1 [Example 6-C, 1-hexadecyl-2,3,5-trimethylpyrazolium p-toluene sulfonate]
T. mentagrophytes; Day 1
  Minimum Inhibitory Concentration: 5 µg/mL

## CCCCCCCCCCCCCC[n+]1c(C)cc(C)n1Cc1ccc([N+](=O)[O-])cc1.[Br-] [Example 6-D, 3,5-dimethyl-2(4-nitrobenzyl)-1-tetradecyl-pyrazolium bromide]
S. pyogenes; Day 1, 37° C.
  MIC: 0.5 µg/mL
S. pyogenes; Day 2, 37° C.
  MIC: 1 µg/mL
T. mentagrophytes; Day 1
  MIC: 10 µg/mL
T. mentagrophytes; Day 2
  MIC: 10 µg/mL

## CCCCCCCCCCCC[n+]1c(C)cc(C)n1Cc1ccc(Cl)cc1.[Br-] [Example 6-E, 2-(p-chlorobenzyl)-3,5-dimethyl-1-dodecyl-pyrazolium bromide]
S. pyogenes; Day 1, 37° C.
  MIC: 0.5 µg/mL
S. pyogenes; Day 2, 37° C.
  MIC: 0.5 µg/mL
T. mentagrophytes; Day 1
  MIC: 5 µg/mL
T. mentagrophytes; Day 2
  MIC: 5 µg/mL

## C=CCn1c(C)cc(C)[n+]1CCCCCCCCCCCCCCCC.[Br-] [Example 7, 2-allyl-3,5-dimethyl-1-hexadecyl-pyrazoliumbromide]
S. pyogenes; Day 1, 37° C.
  MIC: 0.5 µg/mL
S. pyogenes; Day 2, 37° C.
  MIC: 0.5 µg/mL
T. mentagrophytes; Day 1
  MIC: 1 µg/mL
T. mentagrophytes; Day 2
  MIC: 5 µg/mL
